Format in all cases: biochemical
The target of one experiment is PDE1C (Homo sapiens (Human), UniProt Q14123). As to the kind of experiment: PDE1 inhibition assay, PDE1C. The conditions noted are these: for IC50: 15 nM tritium labelled cAMP; for inhibition at 10 µM: read-out: PDE1C, % inhibition (at 10 μM). As for the experimental part:
(§1) Reactions were initiated by addition of the cyclic nucleotide substrate, and reactions were allowed to proceed for 1 h at room temperature before being terminated through mixing with 20 μL (0.2 mg) yttrium silicate SPA beads (PerkinElmer). The beads were allowed to settle for 1 h in the dark before the plates were counted in a Wallac 1450 Microbeta counter.

For the next experiment, the target named is PDE9 (Homo sapiens (Human), UniProt O76083). As to the kind of experiment: PDE9 inhibition assay. The method, boiled down: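 Human PDE9 in 50 mM HEPES pH 7.6, 10 mM MgCl2, 0.02% Tween20, enzyme set to convert 20-25% of 10 nM ^3H-cAMP substrate; inhibitors at varying amounts. 1 hr incubation, stopped with yttrium silicate SPA beads, settled 1 hr in dark, then scintillation counted.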
PDE9, sequence (O76083 whole entry): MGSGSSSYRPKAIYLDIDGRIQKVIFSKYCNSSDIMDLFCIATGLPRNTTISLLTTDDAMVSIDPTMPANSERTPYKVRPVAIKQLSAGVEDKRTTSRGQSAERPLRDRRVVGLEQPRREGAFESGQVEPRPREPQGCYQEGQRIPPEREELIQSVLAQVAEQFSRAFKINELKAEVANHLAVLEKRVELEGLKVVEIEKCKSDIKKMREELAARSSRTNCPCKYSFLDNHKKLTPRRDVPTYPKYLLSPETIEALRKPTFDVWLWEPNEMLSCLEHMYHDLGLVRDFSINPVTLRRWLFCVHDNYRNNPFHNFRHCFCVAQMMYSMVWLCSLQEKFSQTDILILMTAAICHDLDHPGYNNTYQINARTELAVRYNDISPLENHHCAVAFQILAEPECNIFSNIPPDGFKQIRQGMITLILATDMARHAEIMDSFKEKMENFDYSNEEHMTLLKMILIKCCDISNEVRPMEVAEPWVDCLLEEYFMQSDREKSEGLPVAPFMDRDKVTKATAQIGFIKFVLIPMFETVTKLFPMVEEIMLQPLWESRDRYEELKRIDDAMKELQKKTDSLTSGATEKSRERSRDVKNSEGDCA

For a further experiment, the target named is PDE1B (Homo sapiens (Human), UniProt Q01064). As to the kind of experiment: PDE1 inhibition assay, PDE1B. The following applies: for IC50: 15 nM tritium labelled cAMP. How it is done:
as §1

In another experiment the target is PDE1A (Homo sapiens (Human), UniProt P54750). The experiment in a line: PDE1 inhibition assay, PDE1A. The following applies: for IC50: 15 nM tritium labelled cAMP; for inhibition at 10 µM: read-out: PDE1A, % inhibition (at 10 μM). How it is done: Reactions were initiated by addition of the cyclic nucleotide substrate, and reactions were allowed to proceed for 1 h at room temperature before being terminated through mixing with 20 μL (0.2 mg) yttrium silicate SPA beads (PerkinElmer).
PDE1A, sequence (P54750 whole entry): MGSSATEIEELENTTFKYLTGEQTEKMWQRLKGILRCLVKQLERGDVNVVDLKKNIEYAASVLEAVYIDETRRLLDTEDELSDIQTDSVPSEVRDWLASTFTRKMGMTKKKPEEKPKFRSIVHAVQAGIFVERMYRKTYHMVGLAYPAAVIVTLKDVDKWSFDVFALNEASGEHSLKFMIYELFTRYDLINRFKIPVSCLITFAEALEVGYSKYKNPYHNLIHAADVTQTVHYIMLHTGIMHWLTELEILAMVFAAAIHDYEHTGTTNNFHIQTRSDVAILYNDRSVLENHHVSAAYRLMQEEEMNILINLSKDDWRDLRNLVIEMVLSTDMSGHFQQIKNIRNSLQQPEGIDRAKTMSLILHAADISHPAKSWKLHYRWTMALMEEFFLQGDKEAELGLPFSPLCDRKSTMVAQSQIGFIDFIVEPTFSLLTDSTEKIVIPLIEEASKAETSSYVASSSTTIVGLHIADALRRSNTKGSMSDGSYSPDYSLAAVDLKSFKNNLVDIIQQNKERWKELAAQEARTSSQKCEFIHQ

PDE1B, sequence (Q01064 whole entry): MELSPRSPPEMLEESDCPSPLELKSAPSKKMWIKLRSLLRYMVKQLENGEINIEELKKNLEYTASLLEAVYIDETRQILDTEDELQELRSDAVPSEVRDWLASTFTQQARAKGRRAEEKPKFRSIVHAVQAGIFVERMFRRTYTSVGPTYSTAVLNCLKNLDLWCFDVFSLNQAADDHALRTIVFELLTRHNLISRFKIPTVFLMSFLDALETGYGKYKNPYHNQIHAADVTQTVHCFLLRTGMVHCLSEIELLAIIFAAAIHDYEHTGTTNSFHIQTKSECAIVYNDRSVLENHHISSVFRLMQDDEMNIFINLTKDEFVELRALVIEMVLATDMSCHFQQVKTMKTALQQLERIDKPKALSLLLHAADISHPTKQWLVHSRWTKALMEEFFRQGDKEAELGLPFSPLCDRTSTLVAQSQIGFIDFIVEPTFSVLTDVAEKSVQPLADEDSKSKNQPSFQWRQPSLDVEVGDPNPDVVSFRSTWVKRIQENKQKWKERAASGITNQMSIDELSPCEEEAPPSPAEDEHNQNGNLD
PDE1C, sequence (Q14123 whole entry): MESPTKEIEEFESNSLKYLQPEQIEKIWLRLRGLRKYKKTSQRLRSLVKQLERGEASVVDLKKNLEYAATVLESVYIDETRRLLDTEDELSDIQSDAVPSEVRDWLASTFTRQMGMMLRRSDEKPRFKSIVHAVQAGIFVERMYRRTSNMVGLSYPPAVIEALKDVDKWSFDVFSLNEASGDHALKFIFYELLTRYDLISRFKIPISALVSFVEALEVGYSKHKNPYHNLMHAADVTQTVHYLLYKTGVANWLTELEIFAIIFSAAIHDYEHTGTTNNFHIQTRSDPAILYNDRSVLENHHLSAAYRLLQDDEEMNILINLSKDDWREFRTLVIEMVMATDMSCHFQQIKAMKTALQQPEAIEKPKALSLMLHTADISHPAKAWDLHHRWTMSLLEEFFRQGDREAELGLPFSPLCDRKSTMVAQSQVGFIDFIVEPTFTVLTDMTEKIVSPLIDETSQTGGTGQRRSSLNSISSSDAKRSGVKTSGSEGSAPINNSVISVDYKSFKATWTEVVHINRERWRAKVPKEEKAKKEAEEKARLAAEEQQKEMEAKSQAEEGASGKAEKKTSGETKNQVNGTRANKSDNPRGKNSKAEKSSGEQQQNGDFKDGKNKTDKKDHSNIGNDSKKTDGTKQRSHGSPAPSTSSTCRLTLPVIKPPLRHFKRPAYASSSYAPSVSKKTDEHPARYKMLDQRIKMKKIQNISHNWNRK

By IC50 is commonly meant the concentration at which inhibition is half-maximal. Read a high IC50 as lower potency. One may read the inhibition as the relative decrease from the control value, in per cent. Turning to `COc1ccc(Cn2c(C)cn3c(C4CCOCC4)ncc3c2=O)cc1Cl` [Example 51, 7-(3-chloro-4-methoxybenzyl)-6-methyl-3-(tetrahydro-2H-pyran-4-yl)imidazo[1,5-a]pyrazin-8(7H)-one], the IC50 against PDE1C was determined as 46 nM; against PDE1B, 36 nM; against PDE1A, 199 nM. For the same compound, on PDE9, the inhibition at 10 µM was 1%.

Take `Cc1cn2c(C3CCOCC3)ncc2c(=O)n1Cc1ccc(N)cc1` [Example 52, 7-(4-aminobenzyl)-6-methyl-3-(tetrahydro-2H-pyran-4-yl)imidazo[1,5-a]pyrazin-8(7H)-one]: the inhibition at 1 µM at PDE1C (read-out: PDE1C, % inhibition (at 1 μM)) was found to be 10%; at PDE1A (read-out: PDE1A, % inhibition (at 1 μM)) it was 0%. The inhibition at 10 µM at PDE9 was -3%. The IC50 against PDE1B worked out at 388 nM.

For `Cc1cn2c(C3CCOCC3)ncc2c(=O)n1Cc1ccc(O)cc1` [Example 53, 7-(4-hydroxybenzyl)-6-methyl-3-(tetrahydro-2H-pyran-4-yl)imidazo[1,5-a]pyrazin-8(7H)-one], the results for the IC50 on PDE1C, against PDE1B and against PDE1A were 84 nM, 35 nM and 401 nM, respectively. For the same compound, the inhibition at 10 µM against PDE9 was -41%.

Consider `CCc1cn2c(C3CCOCC3)ncc2c(=O)n1Cc1cccc(F)c1` [Example 54, 6-ethyl-7-(3-fluorobenzyl)-3-(tetrahydro-2H-pyran-4-yl)imidazo[1,5-a]pyrazin-8(7H)-one], for which the 50% inhibitory concentration (IC50) is 12 nM at PDE1C, 53 nM at PDE1B and 62 nM at PDE1A. Moreover, the inhibition at 10 µM on PDE9 is 23%.

With `CCCc1ncc2c(=O)n(Cc3ccc(OC)cc3)c(C)cn12` [Example 56, 7-(4-methoxybenzyl)-6-methyl-3-propylimidazo[1,5-a]pyrazin-8(7H)-one], the values for the IC50 against PDE1C, at PDE1B and at PDE1A were 43 nM, 21 nM and 65 nM, respectively. The inhibition at 10 µM against PDE9 is 7%.

On to `COc1ccc(Cn2c(C)cn3c(C4CCOCC4)ncc3c2=O)cn1` [Example 57, 7-((6-methoxypyridin-3-yl)methyl)-6-methyl-3-(tetrahydro-2H-pyran-4-yl)imidazo[1,5-a]pyrazin-8(7H)-one], for which the half-inhibitory concentration (IC50) on PDE1C is 84 nM; on PDE1B, 26 nM; against PDE1A it was 45 nM. Also, the inhibition at 10 µM against PDE9 was -5%.

Consider `Cc1cn2c(C3CCOCC3)ncc2c(=O)n1C` [Example 58, 6,7-dimethyl-3-(tetrahydro-2H-pyran-4-yl)imidazo[1,5-a]pyrazin-8(7H)-one], for which the results for the inhibition at 10 µM on PDE1C, against PDE9 and at PDE1A were 44%, 36% and 58%, respectively. For the same compound, the IC50 on PDE1B stood at 1770 nM.

As for `CCn1c(C)cn2c(C3CCOCC3)ncc2c1=O` [Example 59, 7-ethyl-6-methyl-3-(tetrahydro-2H-pyran-4-yl)imidazo[1,5-a]pyrazin-8(7H)-one], the IC50 against PDE1C stood at 1740 nM; against PDE1B it was 496 nM; against PDE1A, 2330 nM. In addition, the inhibition at 10 µM against PDE9 was -13%.

Consider `CCCn1c(C)cn2c(C3CCOCC3)ncc2c1=O` [Example 60, 6-methyl-7-propyl-3-(tetrahydro-2H-pyran-4-yl)imidazo[1,5-a]pyrazin-8(7H)-one], for which the IC50 against PDE1C was found to be 423 nM; at PDE1B, 221 nM; on PDE1A, 810 nM. Also, the inhibition at 10 µM against PDE9 was -13%.

With `Cc1cn2c(C3CCOCC3)ncc2c(=O)n1C(C)C` [Example 61, 7-isopropyl-6-methyl-3-(tetrahydro-2H-pyran-4-yl)imidazo[1,5-a]pyrazin-8(7H)-one], the inhibition at 10 µM on PDE1C came to 47%; on PDE9, 4%; at PDE1B (read-out: PDE1B, % inhibition (at 10 μM)), 50%; at PDE1A, 4%.

As to `Cc1cn2c(C3CCOCC3)ncc2c(=O)n1CCC(C)C` [Example 62, 7-isopentyl-6-methyl-3-(tetrahydro-2H-pyran-4-yl)imidazo[1,5-a]pyrazin-8(7H)-one], the 50% inhibitory concentration (IC50) on PDE1C worked out at 93 nM; against PDE1B, 558 nM; on PDE1A it was 1080 nM. Also, at PDE9, the inhibition at 10 µM turned out to be 7%.

Source of the values: patent US10858362B2, “Imidazopyrazinones as PDE1 inhibitors” (H. Lundbeck A/S, priority 2015, dated 2020).
